Reference: patent US9314485B2, “Use of PI3K M-TOR and AKT inhibitors to induce FOXP3 expression and generate regulatory T cells” (Medical Research Council, priority 2006, dated 2016)
“Also recorded” adds a separate entry of the source.

Assays:
Akt = assay: pAkt (S473) immunoblot in activated CD4 T cells; format: cell-based, mouse; details: 18 h activated T cells
Method: To monitor the activity of the PI3K/mTOR axis in newly activated CD4 T cells we analysed phosphorylation of S6 ribosomal protein (pS6), a target of the mTOR-regulated p70 S6 kinase S6K1. TCR/CD28 signaling (but not anti-CD28 alone) induced high levels of pS6 (FIG. 10a). The maintenance of mTOR activity in 18 hour activated T cells required continued TCR signaling, since S6 phosphorylation declined when TCR signals were withdrawn (FIG. 10b). […] The serine/threonine protein kinase Akt/PKB is rapidly phosphorylated in response to signaling through TCR/CD28 but, in contrast to pS6, pAkt (S473) was no longer detected 18 h after initiation of TCR/CD28 signaling (FIG. 10c). […] Increased Akt phosphorylation in response to TCR signal deprivation and rapamycin treatment is incompatible with a traditional linear signaling pathway (FIG. 10d) but consistent with a network model in which Akt activity is controlled both by PDK1 and by mTORC2. In this model, mTORC2 (mTOR/rictor/Sin 1) is under negative feedback control of mTORC1 (mTOR/raptor) via S6K1, which phosphorylates and inhibits IRS1 (insulin receptor substrate 1) and reduces Akt activation via PI3K, PDK1 and mTORC2 (FIG. 10e). Applied to our data, withdrawal of TCR signaling lowers mTORC1 and S6K1 activity (FIG. 10b), which reduces feedback inhibition of mTORC2 and explains the observed increase in pAkt (S473) (FIG. 10c). […]

[1] = test system: naive CD62LhiCD4+CD25− LN T cells; assay: Foxp3 induction in newly activated naive CD4 T cells (intracellular staining); format: cell-based, mouse

TGFβ
pAkt (S473) (Akt): reappeared; also recorded: increased pAkt S473
percentage of cells expressing Foxp3 ([1]; added 18 hours after activation with TCR signal deprivation, read within 24-48 hours): 46.0±15.1%
% Foxp3+ cells, activation with anti-TCR only ([1]; no costimulation, average of two experiments): 7%
Foxp3 expression in control cultures, TCR signal deprived cultures subtracted ([1]; serum free AIM-V medium, without anti TGFβ and SB431542, 24-48 hours / 2 days): 22.3±7.0%
% Foxp3+ cells, activation with anti-TCR + anti-CD28 ([1]; with costimulation, average of two experiments): 46%
